Assay results from PubChem BioAssay (NCI).
Where “and” joins values, the source holds several entries; their conditions need not be identical. Equal values may be shown once.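 Method: 48-hour compound exposure of cells in 96-well plates, five concentrations, linear interpolation of endpoints. At the GI50, growth is halved. TGI is the concentration that stops growth completely.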

Columns and labels:
Experiment in all cases: growth of human tumour cells (NCI), 48 h
[1] = test system: UACC-62 melanoma
[2] = test system: UO-31 renal
[3] = test system: NCI-H522 lung
[4] = test system: SK-MEL-5 melanoma
[5] = test system: SF-295 CNS
[6] = test system: HOP-92 NSCLC
[7] = test system: OVCAR-3 ovarian
[8] = test system: NCI-H23 lung
[9] = test system: T-47D breast
[10] = test system: HS 578T breast

SMILES | TGI [1] | TGI [2] | TGI [3] | TGI [4] | TGI [5] | TGI [6] | TGI [7] | TGI [8] | GI50 [1] | GI50 [7] | GI50 [9] | TGI [9] | GI50 [2] | GI50 [3] | GI50 [4] | GI50 [10] | TGI [10] | GI50 [8] | GI50 [5] | GI50 [6]
O=C[C@]12CC=C3OC4OC5(CCCCC5)OC4[C@H]3[C@H]1C(=O)C=CC2=O (stereo partly drawn) | 52.6 µM | 40.8 µM | 22.1 µM | 35.5 µM | > 100 µM | – | – | – | – | – | – | – | – | – | – | – | – | – | – | –
N#CC(C#N)=Cc1ccc(C(O)P(=O)(O)O)cc1 (stereo not drawn) | > 100 µM | > 100 µM | > 100 µM | > 100 µM | > 100 µM | > 100 µM | > 100 µM | > 100 µM | – | – | – | – | – | – | – | – | – | – | – | –
CC(=O)NC(CS)C(=O)O (stereo not drawn) | > 100 µM | > 100 µM and 45400 µM | > 100 µM and 46300 µM | > 100 µM and 66800 µM | > 100 µM and 57700 µM | – | > 100 µM and 58500 µM | > 100 µM and 62700 µM | > 100 µM | > 100 µM | > 100 µM | > 100 µM | > 100 µM | > 100 µM | > 100 µM | > 100 µM | > 100 µM and 87200 µM | > 100 µM | > 100 µM | –
COc1ccc(CN2C(=O)/C(=C\C(=O)c3ccc(OCCN4CCCC4)cc3)c3ccccc32)cc1 | 3.38 µM | 3.11 µM | – | 38.8 µM | 36.8 µM | 4.9 µM | 3.48 µM | 36.5 µM | 1.84 µM | 1.8 µM | – | – | 1.66 µM | – | 16.2 µM | 14.3 µM | 54.6 µM | 10.9 µM | 14.8 µM | 2.09 µM
O=C(/C=C\c1cc(Br)ccc1O)/C=C/c1cc(Br)ccc1O | 1.8 µM | 2.2 µM | – | 1.66 µM | 1.93 µM | 3.69 µM | 1.13 µM | 2.68 µM | 0.429 µM | 0.351 µM | 0.635 µM | 4.94 µM | 0.882 µM | – | 0.426 µM | 1.25 µM | 39.2 µM | 0.87 µM | 0.538 µM | 1.57 µM
CCCCOC(=O)/C=C\C(=O)NC(N)=O | 30.1 µM | 31 µM | – | 71.4 µM | > 100 µM | 24.4 µM | 26.2 µM | 72.5 µM | 15.3 µM | 13 µM | 14.5 µM | 95.5 µM | 13.4 µM | – | 24.3 µM | 23.5 µM | > 100 µM | 25.1 µM | 47.2 µM | 10.9 µM
N#CCCN(C1=NN(C(=O)CC(=O)Nc2ccc(Cl)cc2)C(c2ccccc2)C1)c1ccc(Cl)cc1 (stereo not drawn) | > 100 µM | > 100 µM | > 100 µM | > 100 µM | > 100 µM | > 100 µM | > 100 µM | > 100 µM | – | – | – | – | – | – | – | – | – | – | – | –
O=c1c2ccccc2nc2n1CCc1c-2[nH]c2cc3c(cc12)OCO3 | – | > 25 µM | > 25 µM | > 25 µM | > 25 µM | – | – | – | – | – | – | > 25 µM | – | – | – | 5.05 µM | 17.5 µM | – | – | –
Cn1cnc([N+](=O)[O-])c1Sc1nc2ccccc2o1 | 25.5 µM | 24.8 µM | 4.42 µM | 26.5 µM | 74.9 µM | 12.4 µM | 14.7 µM | 17.1 µM | – | – | – | – | – | – | – | – | – | – | – | –
COC(=O)C(=NNc1ccccc1[N+](=O)[O-])C(=O)OC | – | – | > 100 µM | – | > 100 µM | > 100 µM | – | > 100 µM | – | – | – | – | – | – | – | – | – | – | – | –
Cn1nc(-c2ccccc2)c2c(/C=C/c3ccc(Cl)cc3)onc2c1=O | > 100 µM | 71.4 µM | 45.5 µM | > 100 µM | 68.8 µM | 57.1 µM | – | > 100 µM | – | – | – | – | – | – | – | – | – | – | – | –
CC12CC/C(=N/NC(N)=O)C3C1CCCC32 | > 100 µM | > 100 µM | > 100 µM | > 100 µM | > 100 µM | > 100 µM | > 100 µM | > 100 µM | – | – | – | – | – | – | – | – | – | – | – | –
CN(C)CCCOc1ccc(/C=C2/CCC/C(=C/c3ccc(OCCCN(C)C)cc3)C2=O)cc1 | 3.74 µM | 3.34 µM | 3.75 µM | 3.92 µM | 3.65 µM | 9.72 µM | 5.56 µM | 3.63 µM | – | – | – | – | – | – | – | – | – | – | – | –
COc1ccc(NC(=S)C#N)cc1 | > 100 µM | – | – | > 100 µM | > 100 µM | > 100 µM | > 100 µM | > 100 µM | – | – | – | > 100 µM | – | – | – | – | – | – | – | –
N.N.N.N.N.N#Cc1nn[n-]n1.[Cl-].[Co+3] | > 100 µM | > 100 µM | – | > 100 µM | > 100 µM | > 100 µM | > 100 µM | > 100 µM | > 100 µM | > 100 µM | – | – | > 100 µM | – | > 100 µM | – | – | > 100 µM | > 100 µM | > 100 µM
CCC1(OC(=O)CNC)C(=O)OCc2c1cc1n(c2=O)Cc2cc3ccccc3nc2-1 (stereo not drawn) | 0.0186 µM | 0.0856 µM | 0.285 µM | 0.0337 µM | – | 1.56 µM | 0.401 µM | 0.11 µM | – | – | – | – | – | – | – | – | 40.8 µM | – | – | –
COC(=O)C(=O)C(C#N)c1cccc(Cl)c1 (stereo not drawn) | > 100 µM | > 100 µM | > 100 µM | > 100 µM | > 100 µM | – | > 100 µM | > 100 µM | – | – | – | – | – | – | – | – | – | – | – | –
Cc1cc2nc3c(=O)[nH]c(=O)nc-3n(CC(O)C(O)C(O)CO)c2cc1N (stereo not drawn) | > 100 µM | > 100 µM | – | > 100 µM | > 100 µM | > 100 µM | > 100 µM | > 100 µM | – | – | – | – | – | – | – | – | – | – | – | –
CC12CCCC(C#N)(C1)OC2=O (stereo not drawn) | > 100 µM | > 100 µM | > 100 µM | > 100 µM | > 100 µM | > 100 µM | > 100 µM | > 100 µM | – | – | – | – | – | – | – | – | – | – | – | –
COC(=O)[C@H](Cc1ccccc1)NNC(=O)c1csc([C@@H](C[C@H](C(C)C)N(C)C(=O)[C@@H](NC(=O)[C@H]2CCCCN2C)C2CC2)OC(C)=O)n1 | 25 µM | 25 µM and > 100 µM | – | 0.51 µM and 2.26 µM | 25 µM and > 100 µM | – | – | 25 µM and > 100 µM | 0.0176 µM and 0.0025 µM | 0.00213 µM | – | – | – | 0.00154 µM and 0.0144 µM | – | – | > 100 µM | – | – | –
O=C(O)CCC(=O)Oc1ccc(O)c2c1CCCC2=O | > 100 µM | > 100 µM | > 100 µM | > 100 µM | > 100 µM | – | > 100 µM | > 100 µM | – | – | – | – | – | – | – | – | – | – | – | –
CC(=O)n1nnc2ccc([N+](=O)[O-])cc21 | > 100 µM | > 100 µM | > 100 µM | > 100 µM | > 100 µM | > 100 µM | > 100 µM | > 100 µM | – | – | – | – | – | – | – | – | – | – | – | –
